The subject of this test is E. Coli ATCC 8739. Put plainly: In vitro suppression of bacterial growth from a biofilm on a plastic thread (transmittance of medium at 590 nm). The test is classed as cell-based. Conditions: 7 hours with Solution F/P, higher transmittance = less bacterial growth.

Experimental findings from US20210268075A1, “PHARMACEUTICAL COMPOSITION AND METHOD OF TREATMENT USING SERRATIOPEPTIDASE, MANNOSE OR ITS DERIVATIVE, AND OPTIONALLY ANTINFECTION AGENTS” (priority 2020, published 2021) are described below.

Protocol: 1 ml of Stock E. Coli ATCC 8739 (Culture Count 10×10^8 CFU/ml) was diluted to 10 ml with buffered peptone water with NaCl. The 1 ml of resulting culture (10×10^7 CFU/ml) was diluted to 10 ml with buffered peptone water with NaCl to make E. Coli Culture (10×10^6 CFU/ml)
On first day 6 PM, Five (5) sterile test tubes were added with 50 ml of sterile Soybean Casein Digest Medium. These medium were inoculated with 1 ml of E. Coli culture (10×10^6 CFU/ml @ 6 PM. A thin plastic thread (0.1 mm OD) of the same length were suspended from the middle of all 5 test tubes and keep in overnight (17 hours) at 30° C.-35° C. • 2. On second day 11 AM, another Five (5) sterile test tubes were added with 50 ml of sterile Soybean Casein Digest Medium and 500 mg of Glucose. • a. 1 ml of Solution F (D-mannose solution) was added to test tube 1. • b. 1 ml of Solution P (Serrapeptidase solution) was added to test tube 2. • c. 1 ml of Solution F (D-Mannose solution) and 1 ml of Solution P (Serrapeptidase solution) was added to test tube 3.
The thin plastic thread was transferred from old test tube to new test tube on second day 11 AM. All 5 test tubes were kept at 30° C.-35° C. for 7 hours. • 3. On second day 6 PM, another Five (5) sterile test tubes were added with 50 ml of Sterile Soybean Casein Digest Medium. Transfer the thin plastic thread from old test tube to new test tube on second day at 6 PM. […]

As to `O=C1CN(/N=C/c2ccc([N+](=O)[O-])o2)C(=O)N1` [A (Antibiotic), Nitrofurantoin Anhydrous], the “transmittance of test tube medium at 590 nm” value (Procedure 2: thick plastic thread (0.5 mm OD), then 1 ml Solution A overnight (17 hours) at 30-35° C.) was 6.9.
Regarding `O=C1CN(/N=C/c2ccc([N+](=O)[O-])o2)C(=O)N1` [A^dil (Diluted Antibiotic), Nitrofurantoin Anhydrous], the “transmittance of test tube medium at 590 nm” value (Procedure 1: thin plastic thread (0.1 mm OD), overnight in fresh medium, then 1 ml Solution A^dil for 7 hours at 30-35° C.) is 8.4.
